Test results: PMC9170688, “Gametocyte-specific and all-blood-stage transmission-blocking chemotypes discovered from high throughput screening on Plasmodium falciparum gametocytes” (Communications Biology, 2022)

What was measured:
[1] = test system: P. falciparum NF54 hsp86-PpyRE13 gametocytes; assay: P. falciparum gametocyte luminescence assay (PfLuc), line NF54 hsp86-PpyRE13; type: cell-based, Plasmodium falciparum; settings: for IC50: Plasmodium falciparum, NF54, read-out: Pf Gametocytes NF54 HSP86 (IC50 nM); for gametocyte specificity / selectivity (gametocytes vs asexual stages): NF54 hsp86-PpyRE13, ratio of asexual stage (pLDH) to gametocyte (PfLuc) IC50
Method: (§1) To exclude false positive compounds that may interfere with the click beetle CBG99 luciferase signal and to confirm the activity on gametocytes produced by other P. falciparum lines, we tested the above 638 compounds at a single concentration of 10 µM on gametocytes from two NF54 strain derived lines: pfs16-GFP-PyLUC (Photinus pyralis luciferase under the same pfs16 promoter)[14],[16],[27] and hsp86-PpyRE13 that was generated for this work to express the mutated Photinus pyralis PpyRE13 luciferase in gametocytes under the promoter of the pfhsp86 gene.
(§2) With the selected 84 compounds, the subsequent step aimed at determining the gametocyte inhibition potency and the parasite stage selectivity between the gametocytes and the asexual stages in the NF54 hsp86-PpyRE13. […] Similar data were obtained considering the gametocyte IC50 values measured in the NF54 pfs16-GFP-PyLUC strain (see Supplementary Data 2).
(§3) Parasite gametocyte luminescence assays were performed in 384-well plates (Thermo, 4332, USA) by infected red blood cells seeded at 40 µL/well at a haematocrit of 0.625% for the strain 3D7elo1-pfs16-CBG99, 1.875% for both strains NF54 hsp86-PpyRE13 and NF54 pfs16-GFP-PyLUC. Assay were performed in the medium: 10.44 g/L RPMI 1640 Medium (Gibco, 51800043), 5.95 g/L HEPES (Sigma, H4034), 50 mg/L Hypoxantine (Sigma, 56700), 10% heat inactivated human serum, 10 ml of Neomycin solution (Sigma, N1142) and 2.1 g/L NaHCO3 (Sigma, 144-55-8). Compounds or DMSO as control were pre dispensed on plates, from 10 mM DMSO stock solutions, via an acoustic droplet ejection device (ATS-100, EDC Biosystems) to achieve the final desired concentration. Assay plates were incubated for 48 h at 37 °C in 4% CO2, 3% O2, and 93% N2 modified atmosphere. After incubation, 20 µL/well of a solution of luciferin (Regis, 1-360242-200) potassium/sodium salt (300 µg/ml) are added to the assay plates and read at suitable luminescence detection after 1 min incubation at room temperature. The whole HTS was performed in 7 rounds of 30–80 plates each in two months’ time.

[2] = test system: P. falciparum NF54 pfs16-GFP-PyLUC gametocytes; assay: P. falciparum gametocyte luminescence assay (PfLuc), line NF54 pfs16-GFP-PyLUC; type: cell-based, Plasmodium falciparum; settings: Plasmodium falciparum, NF54, read-out: Pf Gametocytes NF54 pfs16 (IC50 nM)
Method: as §1, §2, §3

[3] = test system: HeLa cells; assay: HeLa cell proliferation assay (CellTiter Glo); type: cell-based, human; settings: Homo sapiens
Method: In addition, we tested the 84 compounds in a dose-response fashion on HeLa cells to quantitatively monitor their cytotoxicity potential.
HeLa cells (CCL-2, ATCC, USA) were cultured in DMEM without phenol red (Thermo, 11880, USA) + 10% FBS + 1X PenStrep + 1X Gln. They were plated in a 384-well plate (Thermo, 4334-11, USA) to a density of 2000 cells per well and let recover for 4 h at 37 °C, 5% CO2 in a humidified atmosphere. After the recovery, compounds were transferred to assay plates as per compound preparation method. Assay plates were then incubated at 37 °C, 5% CO2 in a humidified atmosphere for 72 h. Cell viability was measured by the CellTiTer Glo (Promega, G8080, USA) as per manufacturer instruction.

COc1ccc(NC(=O)Nc2ccc(Nc3nc(C)cc(Nc4ccc(C)cc4)n3)cc2)cc1 [Compound 65]
IC50 [1]: 431 nM | IC50 [2]: 480 nM | IC50 [3]: 4500 nM

Cc1ccc(Nc2cc(C)nc(Nc3ccc(NC(=O)c4cc5ccccc5oc4=O)cc3)n2)cc1 [Compound 63]
IC50 [1]: 1870 nM | IC50 [2]: 225 nM | IC50 [3]: 8690 nM

COc1ccc(Nc2cc(C)nc(Nc3ccc(NC(=O)c4cc(C)cc(C)c4)cc3)n2)cc1 [Compound 64]
IC50 [1]: 215 nM | IC50 [2]: 264 nM | IC50 [3]: 8100 nM

Clc1ccc(Nc2nc(-c3ccccn3)cs2)nc1 [Compound 39]
IC50 [1]: 382 nM | IC50 [2]: 308 nM | IC50 [3]: 2950 nM

Cc1ccc2nc(-c3ccccc3)c(CSc3cccc[n+]3[O-])n2c1 [Compound 16]
gametocyte specificity / selectivity (gametocytes vs asexual stages) [1]: around 6 fold | IC50 [1]: 219 nM | IC50 [2]: 167 nM | IC50 [3]: 9510 nM

COc1cc(CNCC2CCNCC2)ccc1OCc1cccc(Cl)c1 [Compound 53]
IC50 [1]: 1820 nM | IC50 [2]: 876 nM | IC50 [3]: 5340 nM

COc1ccccc1Cn1cc2c(-c3ccc(F)cc3)nnc-2c2cc(OC)c(OC)cc21 [Compound 31]
IC50 [1]: 496 nM | IC50 [2]: 277 nM | IC50 [3]: 5000 nM

OC(c1ccc(Cl)cc1)C1CCN(CCCN2CCC(C(O)c3ccc(Cl)cc3)CC2)CC1 (centres unmarked) [Compound 13]
IC50 [1]: 1600 nM | IC50 [2]: 582 nM | IC50 [3]: 4510 nM

O=C(c1ccc([N+](=O)[O-])o1)N1CCC(Cn2cnc3ccccc32)CC1 [Compound 69]
gametocyte specificity / selectivity (gametocytes vs asexual stages) [1]: around six | IC50 [1]: 1500 nM | IC50 [2]: 555 nM | IC50 [3]: 11300 nM
